Data from ChEMBL document CHEMBL1201861, “Genomics of Drug Sensitity in Cancer screening data, Wellcome Trust Sanger Institute”.

How the values were obtained:
Experiment in all cases: cells
SAS = assay type: functional, cell-based; conditions: Homo sapiens;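 further: growth inhibition of SAS cells, read out with a cell viability assay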
Description: SANGER: Inhibition of human SAS cell growth in a cell viability assay.

PFSK-1 = assay type: functional, cell-based; conditions: Homo sapiens;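 further: cell viability assay measuring how strongly compounds suppress growth of human PFSK-1 cells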
Description: SANGER: Inhibition of human PFSK-1 cell growth in a cell viability assay.

MDA-MB-361 = assay type: functional, cell-based; conditions: Homo sapiens
HCC1419 = assay type: functional, cell-based; conditions: Homo sapiens;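 further: growth inhibition of human HCC1419 cells, read out as cell viability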
Description: SANGER: Inhibition of human HCC1419 cell growth in a cell viability assay.

KYSE-520 cell line = assay type: functional, cell-based; conditions: Homo sapiens;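 further: growth inhibition of human KYSE-520 cells, read out with a viability assay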
Description: SANGER: Inhibition of human KYSE-520 cell growth in a cell viability assay.

CAKI-1 = assay type: functional, cell-based; conditions: Homo sapiens;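 further: growth inhibition of CAKI-1 cells, measured by a cell viability assay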
Description: SANGER: Inhibition of human CAKI-1 cell growth in a cell viability assay.

YKG-1 = assay type: functional, cell-based; conditions: Homo sapiens;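 further: cell growth inhibition, read out with a viability assay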
Description: SANGER: Inhibition of human YKG-1 cell growth in a cell viability assay.

PA-1 = assay type: functional, cell-based; conditions: Homo sapiens;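 further: IC50 for suppression of PA-1 cell proliferation, determined with a cell viability read-out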
Description: SANGER: Inhibition of human PA-1 cell growth in a cell viability assay.

HCT-15 = assay type: functional, cell-based; conditions: Homo sapiens;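 further: cell viability readout, IC50 reflecting suppression of HCT-15 cell growth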
Description: SANGER: Inhibition of human HCT-15 cell growth in a cell viability assay.

Huh-7 = assay type: functional, cell-based; conditions: Homo sapiens;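 further: HuH-7 cell growth inhibition, read out with a cell viability assay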
Description: SANGER: Inhibition of human HuH-7 cell growth in a cell viability assay.

RPMI-7951 = assay type: functional, cell-based; conditions: Homo sapiens
Description: SANGER: Inhibition of human RPMI-7951 cell growth in a cell viability assay.

CHL-1 = assay type: functional, cell-based; conditions: Homo sapiens;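 further: cell growth inhibition, read out with a cell viability assay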
Description: SANGER: Inhibition of human CHL-1 cell growth in a cell viability assay.

UACC-62 = assay type: functional, cell-based; conditions: Homo sapiens;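 further: growth inhibition of human UACC-62 cells, read out by a cell viability assay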
Description: SANGER: Inhibition of human UACC-62 cell growth in a cell viability assay.

PANC-08-13 = assay type: functional, cell-based; conditions: Homo sapiens;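 further: cell growth inhibition, measured with a cell viability assay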
Description: SANGER: Inhibition of human PANC-08-13 cell growth in a cell viability assay.

GAMG = assay type: functional, cell-based; conditions: Homo sapiens;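 further: cell growth inhibition measured by a viability assay in the GAMG human cell line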
Description: SANGER: Inhibition of human GAMG cell growth in a cell viability assay.

OVCAR-5 = assay type: functional, cell-based; conditions: Homo sapiens;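 further: growth inhibition of human OVCAR-5 cells, read out with a cell viability assay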
Description: SANGER: Inhibition of human OVCAR-5 cell growth in a cell viability assay.

FaDu = assay type: functional, cell-based; conditions: Homo sapiens;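 further: cell viability readout of growth inhibition in FaDu cells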
Description: SANGER: Inhibition of human FADU cell growth in a cell viability assay.

NB14 = assay type: functional, cell-based, Homo sapiens; conditions: Homo sapiens, NB14;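 further: growth inhibition of NB14 cells measured with a cell viability assay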
Description: SANGER: Inhibition of human NB14 cell growth in a cell viability assay.

D-336MG = assay type: functional, cell-based, Homo sapiens; conditions: Homo sapiens, D-336MG
Description: SANGER: Inhibition of human D-336MG cell growth in a cell viability assay.

SCC-9 = assay type: functional, cell-based; conditions: Homo sapiens;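 further: Read-out is a cell viability assay, with values giving inhibition of cell growth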
Description: SANGER: Inhibition of human SCC-9 cell growth in a cell viability assay.

MDA-MB-231 = assay type: functional, cell-based; conditions: Homo sapiens
Description: SANGER: Inhibition of human MDA-MB-231 cell growth in a cell viability assay.

HEC-1 = assay type: functional, cell-based; conditions: Homo sapiens;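 further: growth inhibition of the cell line, read out with a cell viability assay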
Description: SANGER: Inhibition of human HEC-1 cell growth in a cell viability assay.

HCC38 = assay type: functional, cell-based; conditions: Homo sapiens;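 further: cell viability assay on the human HCC38 cell line, with IC50 marking the concentration that inhibits cell growth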
Description: SANGER: Inhibition of human HCC38 cell growth in a cell viability assay.

CHP-212 = assay type: functional, cell-based; conditions: Homo sapiens
Description: SANGER: Inhibition of human CHP-212 cell growth in a cell viability assay.

NCI-H596 = assay type: functional, cell-based; conditions: Homo sapiens;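 further: growth inhibition of NCI-H596 cells, read out with a cell viability assay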
Description: SANGER: Inhibition of human NCI-H596 cell growth in a cell viability assay.

RD = assay type: functional, cell-based; conditions: Homo sapiens
Description: SANGER: Inhibition of human RD cell growth in a cell viability assay.

C-33-A = assay type: functional, cell-based; conditions: Homo sapiens;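 further: cell viability assay measuring growth inhibition of C-33-A cells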
Description: SANGER: Inhibition of human C-33-A cell growth in a cell viability assay.

HCC1569 = assay type: functional, cell-based; conditions: Homo sapiens;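 further: growth inhibition of human HCC1569 cells, read out with a cell viability assay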
Description: SANGER: Inhibition of human HCC1569 cell growth in a cell viability assay.

NCI-H630 = assay type: functional, cell-based; conditions: Homo sapiens;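 further: growth inhibition of NCI-H630 cells, read out with a cell viability assay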
Description: SANGER: Inhibition of human NCI-H630 cell growth in a cell viability assay.

SAOS-2 = assay type: functional, cell-based; conditions: Homo sapiens;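 further: growth inhibition of human Saos-2 cells determined by a cell viability assay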
Description: SANGER: Inhibition of human Saos-2 cell growth in a cell viability assay.

P12-Ichikawa = assay type: functional, cell-based; conditions: Homo sapiens
NCI-H1573 = assay type: functional, cell-based; conditions: Homo sapiens;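 further: growth inhibition of NCI-H1573 cells, read out with a cell viability assay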
Description: SANGER: Inhibition of human NCI-H1573 cell growth in a cell viability assay.

NCI-H1792 = assay type: functional, cell-based; conditions: Homo sapiens;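 further: growth inhibition of human NCI-H1792 cells, read out as cell viability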
Description: SANGER: Inhibition of human NCI-H1792 cell growth in a cell viability assay.

BFTC-909 = assay type: functional, cell-based; conditions: Homo sapiens
Description: SANGER: Inhibition of human BFTC-909 cell growth in a cell viability assay.

S-117 = assay type: functional, cell-based; conditions: Homo sapiens
Description: SANGER: Inhibition of human S-117 cell growth in a cell viability assay.

KYSE-70 cell line = assay type: functional, cell-based; conditions: Homo sapiens;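 further: cell viability assay read-out, with IC50 expressing suppression of KYSE-70 cell growth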
Description: SANGER: Inhibition of human KYSE-70 cell growth in a cell viability assay.

IGROV-1 = assay type: functional, cell-based; conditions: Homo sapiens;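 further: reduction of IGROV-1 cell growth, read out with a viability assay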
Description: SANGER: Inhibition of human IGROV-1 cell growth in a cell viability assay.

DK-MG = assay type: functional, cell-based; conditions: Homo sapiens;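 further: growth inhibition of DK-MG cells, read out with a cell viability assay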
Description: SANGER: Inhibition of human DK-MG cell growth in a cell viability assay.

HSC-4 = assay type: functional, cell-based; conditions: Homo sapiens;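 further: growth inhibition of human HSC-4 cells, read out with a cell viability assay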
Description: SANGER: Inhibition of human HSC-4 cell growth in a cell viability assay.

HuO9 = assay type: functional, cell-based; conditions: Homo sapiens;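 further: growth inhibition of HuO9 cells, read out with a cell viability assay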
Description: SANGER: Inhibition of human HuO9 cell growth in a cell viability assay.

SCC-25 = assay type: functional, cell-based; conditions: Homo sapiens;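 further: growth inhibition of SCC-25 cells, measured with a cell viability assay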
Description: SANGER: Inhibition of human SCC-25 cell growth in a cell viability assay.

SF-295 = assay type: functional, cell-based; conditions: Homo sapiens;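 further: growth inhibition of SF-295 cells, read out with a cell viability assay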
Description: SANGER: Inhibition of human SF295 cell growth in a cell viability assay.

CAL-120 = assay type: functional, cell-based; conditions: Homo sapiens;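 further: cell growth inhibition, read out as cell viability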
Description: SANGER: Inhibition of human CAL-120 cell growth in a cell viability assay.

SK-MEL-24 = assay type: functional, cell-based; conditions: Homo sapiens;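 further: growth inhibition read out by a cell viability assay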
Description: SANGER: Inhibition of human SK-MEL-24 cell growth in a cell viability assay.

BT-20 = assay type: functional, cell-based; conditions: Homo sapiens;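 further: cell viability assay measuring suppression of growth in human BT-20 cells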
Description: SANGER: Inhibition of human BT-20 cell growth in a cell viability assay.

CP66-MEL = assay type: functional, cell-based; conditions: Homo sapiens;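 further: growth inhibition of CP66-MEL cells determined in a cell viability assay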
Description: SANGER: Inhibition of human CP66-MEL cell growth in a cell viability assay.

EW-24 = assay type: functional, cell-based, Homo sapiens; conditions: Homo sapiens, EW-24;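 further: human EW-24 cancer cell line, growth inhibition read out via a cell viability assay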
Description: SANGER: Inhibition of human EW-24 cell growth in a cell viability assay.

HT-1376 = assay type: functional, cell-based; conditions: Homo sapiens
Description: SANGER: Inhibition of human HT-1376 cell growth in a cell viability assay.

SJRH30 = assay type: functional, cell-based; conditions: Homo sapiens;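 further: growth inhibition of human SJRH30 cells, read out with a cell viability assay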
Description: SANGER: Inhibition of human SJRH30 cell growth in a cell viability assay.

NC(=O)Nc1cc(-c2cccc(F)c2)sc1C(=O)N[C@H]1CCCNC1 [AZD-7762]
IC50 (SAS): 1270 nM | IC50 (PFSK-1): 411 nM | IC50 (MDA-MB-361): 299 nM | IC50 (HCC1419): > 2000 nM | IC50 (KYSE-520 cell line): 826 nM | IC50 (CAKI-1): 287 nM | IC50 (YKG-1): 1580 nM | IC50 (PA-1): 750 nM | IC50 (HCT-15): > 2000 nM | IC50 (Huh-7): 1400 nM | IC50 (RPMI-7951): 231 nM | IC50 (CHL-1): 526 nM | IC50 (UACC-62): 776 nM | IC50 (PANC-08-13): 661 nM | IC50 (GAMG): 386 nM | IC50 (OVCAR-5): 139 nM | IC50 (FaDu): 412 nM | IC50 (NB14): 61.4 nM | IC50 (D-336MG): 421 nM | IC50 (SCC-9): 1990 nM | IC50 (MDA-MB-231): 1600 nM | IC50 (HEC-1): 814 nM | IC50 (HCC38): 750 nM | IC50 (CHP-212): 198 nM | IC50 (NCI-H596): > 2000 nM | IC50 (RD): > 2000 nM | IC50 (C-33-A): 862 nM | IC50 (HCC1569): > 2000 nM | IC50 (NCI-H630): 1790 nM | IC50 (SAOS-2): 746 nM | IC50 (P12-Ichikawa): 43.2 nM | IC50 (NCI-H1573): 1420 nM | IC50 (NCI-H1792): 942 nM | IC50 (BFTC-909): 588 nM | IC50 (S-117): 1040 nM | IC50 (KYSE-70 cell line): > 2000 nM | IC50 (IGROV-1): 244 nM | IC50 (DK-MG): > 2000 nM | IC50 (HSC-4): 106 nM | IC50 (HuO9): 298 nM | IC50 (SCC-25): > 2000 nM | IC50 (SF-295): 298 nM | IC50 (CAL-120): > 2000 nM | IC50 (SK-MEL-24): > 2000 nM | IC50 (BT-20): 1720 nM | IC50 (CP66-MEL): > 2000 nM | IC50 (EW-24): 289 nM | IC50 (HT-1376): > 2000 nM

CN(NC(=O)CC(=O)NN(C)C(=S)c1ccccc1)C(=S)c1ccccc1 [ELESCLOMOL]
IC50 (SAS): 22.5 nM | IC50 (PFSK-1): 12.7 nM | IC50 (MDA-MB-361): 25.9 nM | IC50 (HCC1419): 19.6 nM | IC50 (KYSE-520 cell line): 104 nM | IC50 (CAKI-1): 24.1 nM | IC50 (YKG-1): 12.6 nM | IC50 (PA-1): 8.84 nM | IC50 (HCT-15): 150 nM | IC50 (Huh-7): 17.6 nM | IC50 (RPMI-7951): 36.6 nM | IC50 (CHL-1): 2.81 nM | IC50 (UACC-62): 23.2 nM | IC50 (PANC-08-13): 9.63 nM | IC50 (GAMG): 2.51 nM | IC50 (OVCAR-5): 1.83 nM | IC50 (FaDu): 5.66 nM | IC50 (NB14): 6.64 nM | IC50 (D-336MG): 23.4 nM | IC50 (SCC-9): 121 nM | IC50 (MDA-MB-231): 19 nM | IC50 (HEC-1): 8.25 nM | IC50 (HCC38): > 200 nM | IC50 (CHP-212): 7.34 nM | IC50 (NCI-H596): 44.8 nM | IC50 (RD): 13.1 nM | IC50 (C-33-A): 7.58 nM | IC50 (HCC1569): > 200 nM | IC50 (NCI-H630): > 200 nM | IC50 (SAOS-2): 11.1 nM | IC50 (SJRH30): 100 nM | IC50 (P12-Ichikawa): 4.04 nM | IC50 (NCI-H1573): 189 nM | IC50 (NCI-H1792): > 200 nM | IC50 (BFTC-909): 63.5 nM | IC50 (S-117): 27.4 nM | IC50 (KYSE-70 cell line): 54 nM | IC50 (IGROV-1): 104 nM | IC50 (DK-MG): 17.1 nM | IC50 (HSC-4): 4.8 nM | IC50 (HuO9): 21.5 nM | IC50 (SCC-25): 23 nM | IC50 (SF-295): 9.2 nM | IC50 (CAL-120): 14 nM | IC50 (SK-MEL-24): > 200 nM | IC50 (BT-20): 35.2 nM | IC50 (CP66-MEL): 55.1 nM | IC50 (EW-24): 3.83 nM | IC50 (HT-1376): > 200 nM

CC1=C(/C=C/C(C)=C/C=C/C(C)=C/C(=O)O)C(C)(C)CCC1 [TRETINOIN]
IC50 (SAS): > 10000 nM | IC50 (PFSK-1): > 10000 nM | IC50 (MDA-MB-361): > 10000 nM | IC50 (HCC1419): > 10000 nM | IC50 (KYSE-520 cell line): > 10000 nM | IC50 (CAKI-1): > 10000 nM | IC50 (YKG-1): > 10000 nM | IC50 (PA-1): > 10000 nM | IC50 (HCT-15): > 10000 nM | IC50 (Huh-7): > 10000 nM | IC50 (RPMI-7951): > 10000 nM | IC50 (CHL-1): > 10000 nM | IC50 (UACC-62): > 10000 nM | IC50 (PANC-08-13): > 10000 nM | IC50 (GAMG): > 10000 nM | IC50 (OVCAR-5): > 10000 nM | IC50 (FaDu): > 10000 nM | IC50 (NB14): 7130 nM | IC50 (D-336MG): > 10000 nM | IC50 (SCC-9): > 10000 nM | IC50 (MDA-MB-231): > 10000 nM | IC50 (HEC-1): > 10000 nM | IC50 (HCC38): > 10000 nM | IC50 (CHP-212): > 10000 nM | IC50 (NCI-H596): > 10000 nM | IC50 (RD): > 10000 nM | IC50 (C-33-A): > 10000 nM | IC50 (HCC1569): > 10000 nM | IC50 (NCI-H630): > 10000 nM | IC50 (SAOS-2): > 10000 nM | IC50 (SJRH30): > 10000 nM | IC50 (P12-Ichikawa): > 10000 nM | IC50 (NCI-H1573): > 10000 nM | IC50 (NCI-H1792): > 10000 nM | IC50 (BFTC-909): > 10000 nM | IC50 (S-117): > 10000 nM | IC50 (KYSE-70 cell line): > 10000 nM | IC50 (IGROV-1): > 10000 nM | IC50 (DK-MG): > 10000 nM | IC50 (HSC-4): > 10000 nM | IC50 (HuO9): > 10000 nM | IC50 (SCC-25): > 10000 nM | IC50 (SF-295): > 10000 nM | IC50 (CAL-120): > 10000 nM | IC50 (SK-MEL-24): > 10000 nM | IC50 (BT-20): > 10000 nM | IC50 (CP66-MEL): > 10000 nM | IC50 (EW-24): > 10000 nM | IC50 (HT-1376): > 10000 nM

NC(=O)c1ccc(N(C(N)=O)c2c(F)cccc2F)nc1-c1ccc(F)cc1F [VX-702]
IC50 (SAS): > 2000 nM | IC50 (PFSK-1): > 2000 nM | IC50 (MDA-MB-361): > 2000 nM | IC50 (HCC1419): > 2000 nM | IC50 (KYSE-520 cell line): > 2000 nM | IC50 (CAKI-1): > 2000 nM | IC50 (YKG-1): > 2000 nM | IC50 (PA-1): > 2000 nM | IC50 (HCT-15): > 2000 nM | IC50 (Huh-7): > 2000 nM | IC50 (RPMI-7951): > 2000 nM | IC50 (CHL-1): > 2000 nM | IC50 (UACC-62): > 2000 nM | IC50 (PANC-08-13): > 2000 nM | IC50 (GAMG): > 2000 nM | IC50 (OVCAR-5): > 2000 nM | IC50 (FaDu): > 2000 nM | IC50 (NB14): > 2000 nM | IC50 (D-336MG): > 2000 nM | IC50 (SCC-9): > 2000 nM | IC50 (MDA-MB-231): > 2000 nM | IC50 (HEC-1): > 2000 nM | IC50 (HCC38): > 2000 nM | IC50 (CHP-212): > 2000 nM | IC50 (NCI-H596): > 2000 nM | IC50 (RD): > 2000 nM | IC50 (C-33-A): > 2000 nM | IC50 (HCC1569): > 2000 nM | IC50 (NCI-H630): > 2000 nM | IC50 (SAOS-2): > 2000 nM | IC50 (SJRH30): > 2000 nM | IC50 (P12-Ichikawa): > 2000 nM | IC50 (NCI-H1573): > 2000 nM | IC50 (NCI-H1792): > 2000 nM | IC50 (BFTC-909): > 2000 nM | IC50 (S-117): > 2000 nM | IC50 (KYSE-70 cell line): > 2000 nM | IC50 (IGROV-1): > 2000 nM | IC50 (DK-MG): > 2000 nM | IC50 (HSC-4): > 2000 nM | IC50 (HuO9): > 2000 nM | IC50 (SCC-25): > 2000 nM | IC50 (SF-295): > 2000 nM | IC50 (CAL-120): > 2000 nM | IC50 (SK-MEL-24): > 2000 nM | IC50 (BT-20): > 2000 nM | IC50 (CP66-MEL): > 2000 nM | IC50 (EW-24): > 2000 nM | IC50 (HT-1376): > 2000 nM
